Laboratory results as given in patent US20030190357A1, “Compositions for delivery of a cortisol antagonist” (priority 2000, published 2003).

Assay: solubility of ketoconazole in oleic acid
Format: physicochemical
Conditions: ambient room temperature, 48 h
Method: The solubility of ketoconazole in oleic acid was assessed at ambient room temperature using the method described in Example 1. Samples containing 5, 10, 15 and 33 wt. % of ketoconazole were mixed with oleic acid and the appearance of undissolved ketoconazole was investigated after 24 and 48 h. After 24 hours samples containing 5 wt. % ketoconazole were completely dissolved and after 48 h samples containing 10 wt. % of ketoconazole were completely homogenous and all ketoconazole was dissolved. Thus the solubility of ketoconazole in oleic acid is estimated to be about 10 wt. %.

solubility of ketoconazole in oleic acid: about 10 wt. %
SMILES: CC(=O)N1CCN(c2ccc(OCC3COC(Cn4ccnc4)(c4ccc(Cl)cc4Cl)O3)cc2)CC1 (stereo not shown) [ketoconazole, Ketoconazole]
